Measurements as given in patent publication US10239878B2, “Macrocyclic ligands with pendant chelating moieties and complexes thereof” (LUMIPHORE, INC., priority 2016, dated 2019).

Assays:
Assay type in all cases: physicochemical
[1] = Photophysical characterization of Eu complexes (UV-vis absorption, quantum yield, lifetime)
Experimental: The europium complexes of ligands 16, 29, 33, 40, and 43 were prepared by separately dissolving each ligand (2 mg) into methanol (200 μL). Excess europium chloride hexahydrate (˜5 equivalents) was dissolved in methanol (200 μL) and the full volume was added to each of the ligand solutions. The solvent was removed, and the residue was dissolved into DMF (50 μL). The europium complexes were then purified by semi-prep HPLC on an Agilent 1260 Infinity instrument using an Eclipse XDB-C18 column (5 μm, 9.4×250 mm). The mobile phase was 10 to 30% acetonitrile in water containing 0.1% trifluoroacetic acid. The volatiles were removed from the HPLC eluents under vacuum, and the residues were separately dissolved into methanol (500 μL) to give methanolic stock solutions of each europium complex with greater than 98% purity. A few drops of these methanolic solutions were evaporated to dryness, and then the residue was dissolved into TBS buffer at a concentration of ca. 3 μM to make aqueous stock solutions (20 mL) with an absorbance of 0.05 (1 cm path length) at 365 nm. Five dilutions (1/6, 2/6, 3/6, 4/6, and 5/6) were made from these aqueous stock solutions to yield six samples with evenly spaced concentrations (3 mL volume each). Quinine sulfate dissolved in 0.05 M sulfuric acid was similarly diluted to a final absorbance of 0.05 at 365 nm, and this solution was similarly (1/6, 2/6, 3/6, 4/6, and 5/6) diluted to afford six quinine sulfate reference samples of evenly spaced concentration. Quinine sulfate in 0.05 M sulfuric acid was used as the quantum yield standard (Φ=0.508). By measuring the absorbance and luminescence of these dilute solutions, the quantum yields of the new Eu complexes were determined. A 5 cm path-length quartz cell was used to measure the absorbance of these dilute solutions in order to improve the UV-vis signal-to-noise. Steady state photoluminescence measurements were collected in a 1 cm fluorescence cuvette at 365 nm excitation wavelength, 1 nm resolution, 10 nm excitation slit width, 1 nm emission slit width, and 0.2 sec integration time on an instrument that has been described elsewhere (D'Aléo, A.; Moore, E. G.; Szigethy, G.; Xu, J.; Raymond, K. N. Inorg. Chem. 2009, 48, 9316.). Absorption spectra were measured at 1 nm resolution, and the absorbance of each sample was taken as the average absorbance measured from 360-370 nm to reflect the 10 nm excitation slit width used for luminescence measurements. The data derived from these experiments, and from the titration experiments in example 11 are tabulated below.

[2] = Stability of 43⋅Eu luminescence in the presence of ca. 25 mM competitors
Experimental: In order for a luminescent metal complex to be useful in a practical sense, it must be stable in the presence of common competitive metal cations and chelating ligands. We measured the stability of 43 ⋅Eu (ca. 7 μM) dissolved in TBS buffer, with various competitors present at ca. 25 mM concentration. Specifically, manganese dichloride tetrahydrate (14.8 mg, 74.8 μmol) was dissolved into TBS buffer (100 μL), and added to an aliquot of 43⋅Eu (3 mL), making the final concentration of Mn(II) 24.1 mM. Magnesium chloride hexahydrate (33.6 mg, 165 μmol) was dissolved into TBS buffer (200 μL), and 100 μL was added to an aliquot of 43⋅Eu (3 mL), making the final concentration of Mg(II) 26.7 mM. Calcium chloride hexahydrate (55.8 mg, 255 μmol) was dissolved into TBS buffer (300 μL), and 100 μL was added to an aliquot of 43 ⋅Eu (3 mL), making the final concentration of Ca(II) 27.4 mM. For DTPA, first KOH (95.9 mg, 1.71 mmol) was dissolved into 1 mL of water, and 389 μL of this basic solution (5 equivalents) was used to dissolve DTPA (52.3 mg, 133 μmol). Then, 219 μL of this DTPA solution was added to an aliquot of 43⋅Eu (3 mL), making the final concentration of DTPA 23.4 mM. EDTA (0.5 M, pH=8, 150 μL) was added to an aliquot of 43 ⋅Eu (3 mL), making the final concentration of EDTA 23.8 mM. For phosphate competition, the methanolic stock of 43⋅Eu was diluted to ca. 7 μM in 25 mM phosphate buffer (pH=8).

[3] = 250 mM DTPA competition experiments (kinetic stability of Eu complexes); details: 33⋅Eu versus 16⋅Eu, 43⋅Eu versus 40⋅Eu
Excerpt: From these experiments, it is clear that 43⋅Eu is remarkably stable to a wide range of competitive metal ions and chelators. The competitor concentrations mentioned above are a good way to assess the kinetic stability of the complex in various assay conditions. DTPA is an exceptionally good ligand for lanthanide ions, and thus it is not typically used in practical assays. However, DTPA competition offers an excellent way to benchmark the kinetic stability of the complexes reported here. […] In order to compare the kinetic stability of the complexes reported here, a 750 mM stock solution (25 mL) of DTPA was prepared by dissolving DTPA (7.375 g, 18.75 mmol) into water (20 mL) containing potassium hydroxide (5.26 g, 93.75 mmol). The pH of the DTPA solution was adjusted to pH=7.6 by addition of concentrated hydrochloric acid, and then the solution was diluted to a final volume of 25 mL to give a 750 mM DTPA stock solution at pH=7.6. HPLC purified europium complexes of 16, 29, 33, 40, and 43 were separately diluted to 11 μM in TBS buffer, pH=7.6. For each DTPA competition experiment, 1 mL of the 750 mM DTPA solution was added to 2 mL of the 11 μM europium complex solution. The luminescence at 612 nm (365 nm excitation) was monitored for these five separate solutions containing 250 mM DTPA and 7.1 μM of each europium complex as a function of time.

What does the source list for NCCOCCNC(=O)C1CCCN(C(=O)c2cccc(=O)n2[O-])CCCNC(=O)c2ccc(n([O-])c2=O)C(=O)NC2COCC2NC(=O)c2ccc(c(=O)n2[O-])C(=O)NCCCN1C(=O)c1cccc(=O)n1[O-].[Eu+3] (mixture of isomers) [43⋅Eu]?
ε260/ε at λmax ([1]; TBS buffer, pH 7.6): 1.52; ε280/ε at λmax ([1]; TBS buffer, pH 7.6): 1.20; λmax ([1]; TBS buffer, pH 7.6): 358 nm; Φtotal at 365 nm excitation ([1]; TBS buffer, quinine sulfate as quantum yield standard): 28.8%; Lifetime ([1]; luminescence, HPLC purified Eu complexes): 734 μs; change in sample brightness ([2]; 25 mM phosphate buffer pH=8, 24 hours): no detectable change; change in sample brightness ([2]; Ca(II) 27.4 mM, TBS buffer, 24 hours): no detectable change; brightness remaining (of the original brightness) ([2]; DTPA 23.4 mM, TBS buffer, after 24 hours): 83%; brightness remaining ([2]; EDTA 23.8 mM, TBS buffer, 24 hours): 96%; change in sample brightness ([2]; Mg(II) 26.7 mM, TBS buffer, 24 hours): no detectable change; brightness remaining ([2]; Mn(II) 24.1 mM, TBS buffer, 24 hours): 89%; reduction in kinetic stability upon introduction of the spermine-based sidearm [3]: ~2 fold
